Source: US8952024B2, “Herbicidal pyrimidone derivatives” (E I du Pont de Nemours and Company, priority 2009, dated 2015)

How the values were obtained:
Assay type in all cases: in vivo
[1] = tested on: pigweed (Amaranthus retroflexus); assay: Test C plant response; conditions: Postemergence, scale 0 to 100
Source text: (§1) Seeds of plant species selected from bluegrass (annual bluegrass, Poa annua), blackgrass (Alopecurus myosuroides), canarygrass (Phalaris minor), chickweed (common chickweed, Stellaria media), galium (catchweed bedstraw, Galium aparine), bromegrass (downy bromegrass, Bromus tectorum), field poppy (Papaver rhoeas), field violet (Viola arvensis), green foxtail (Setaria viridis), deadnettle (henbit deadnettle, Lamium amplexicaule), Italian ryegrass (Lolium multiflorum), kochia (Kochia scoparia), lambsquarters (Chenopodium album), oilseed rape (Brassica napus), pigweed (Amaranthus retroflexus), Russian thistle (Salsola iberica), spring barley (Hordeum vulgare), spring wheat (Triticum aestivum), buckwheat (wild buckwheat, Polygonum convolvulus), wild mustard (Sinapis arvensis), wild oat (Avena fatua), wild radish (Raphanus raphanistrum), windgrass (Apera spica-venti), winter barley (Hordeum vulgare), and winter wheat (Triticum aestivum) were planted and treated postemergence with test chemicals formulated in a non-phytotoxic solvent mixture which included a surfactant. Plants ranged in height from 2 to 18 cm (1- to 4-leaf stage).
(§2) Treated plants and controls were maintained in a controlled growth environment for 14 days after which time all test plants were visually evaluated and compared to controls. Plant response ratings, summarized in Table C, are based on a scale of 0 to 100 where 0 is no effect and 100 is complete control. A dash (-) response means no test result.

[2] = tested on: lambsquarters (Chenopodium album); assay: Test C plant response; conditions: Postemergence, scale 0 to 100
Source text: as §1, §2

[3] = tested on: Russian thistle (Salsola kali); assay: Test B pre-/postemergence plant response; conditions: Preemergence; for Russian Thistle plant response rating: 250 g ai/ha, 0 to 100 scale
In short: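 Visual ratings on a 0–100 scale (100 = complete control) were made versus untreated controls 13–15 days after treatment in a greenhouse. Compounds in surfactant-containing non-phytotoxic solvent were applied preemergence to seeds in loam–sand blend or postemergence to 1- to 4-leaf plants (2–18 cm).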

[4] = tested on: green foxtail (Setaria viridis); assay: Test D pre-/postemergence plant response
In short: (§3)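 Greenhouse assay: sown seeds in loam/sand received preemergence spray; simultaneously, emerged seedlings (1- to 4-leaf, 2–18 cm) got postemergence spray of the same surfactant-containing formulation. Rating at 14–21 days by visual comparison with controls, 0 = no effect to 100 = complete control.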

[5] = tested on: naked crabgrass (Digitaria nuda); assay: Test D pre-/postemergence plant response; conditions: Preemergence, scale 0 to 100
In short: as §3

[6] = tested on: spanishneedles (Bidens bipinnata); assay: Test D pre-/postemergence plant response
In short: as §3

kochia (Kochia scoparia) = assay: Test D pre-/postemergence plant response
In short: as §3

[7] = tested on: sowthistle (common sowthistle, Sonchus oleraceous); assay: Test D pre-/postemergence plant response; conditions: Postemergence
In short: as §3

[8] = 62 g ai/ha, scale 0 to 100 (0 no effect, 100 complete control)
[9] = 31 g ai/ha, scale 0 to 100 (0 no effect, 100 complete control)
[10] = 125 g ai/ha, scale 0 to 100, 0 no effect, 100 complete control
[11] = Postemergence, 31 g ai/ha, scale 0 to 100
[12] = Postemergence, 62 g ai/ha, scale 0 to 100 (0 no effect, 100 complete control)
[13] = Postemergence, 125 g ai/ha, scale 0 to 100 (0 no effect, 100 complete control)
[14] = Postemergence, 250 g ai/ha, scale 0 to 100 (0 no effect, 100 complete control)
[15] = Preemergence, 62 g ai/ha, scale 0 to 100
[16] = Preemergence, 125 g ai/ha, scale 0 to 100
[17] = Preemergence, 250 g ai/ha, scale 0 to 100

Q: Which “Plant response rating: Pigweed” value ([1]; 31 g ai/ha) does the source give for Cc1cc(C)cc(-n2c(-c3ccccc3)ncc(C(=O)C3=C(O)CCCC3=O)c2=O)c1 [Compound 33] here?
A: 95

Q: What about the “Plant response rating: Pigweed” value ([1]; 16 g ai/ha) of the same molecule?
A: 75

Q: And the “Plant response rating: Pigweed” value ([1]; 62 g ai/ha)?
A: 95

Q: What about the “Plant response rating: Pigweed” value ([1]; 125 g ai/ha) of the same molecule?
A: 98

Q: What about the “Plant response rating: Lambsquarters” value ([2]; 31 g ai/ha) of the same molecule?
A: 98

Q: And the “Plant response rating: Lambsquarters” value ([2]; 16 g ai/ha)?
A: 98

Q: What about the “Plant response rating: Lambsquarters” value ([2]; 62 g ai/ha) of the same molecule?
A: 100

Q: What about the “Plant response rating: Lambsquarters” value ([2]; 125 g ai/ha) of the same molecule?
A: 100

Q: With O=C1CCCC(O)=C1C(=O)c1cnc(-c2cccc(Cl)c2)n(-c2ccc(Cl)cc2)c1=O [Compound 64] as the molecule, how does the “Plant response rating, Russian Thistle” value [3, 8] read?
A: 0

Q: CCCCc1ncc(C(=O)C2=C(O)CCCC2=O)c(=O)n1-c1ccc(C)cc1 [Compound 67] was tested. Which “Plant response rating, Russian Thistle” value [3, 9] did it give?
A: 85

Q: For CCCc1ncc(C(=O)C2=C(O)CCCC2=O)c(=O)n1-c1ccccc1C [Compound 73], which “Plant response rating, Russian Thistle” value [3, 9] is on record?
A: 0

Q: For CCCc1ncc(C(=O)C2=C(O)CCCC2=O)c(=O)n1CC1CCCO1 (stereo not shown) [Compound 74], which “Plant response rating, Russian Thistle” value [3, 9] is on record?
A: 0

Q: And the “Plant response rating, Russian Thistle” value [3, 8]?
A: 80

Q: What about the “Plant response rating, Russian Thistle” value [3, 10] of the same molecule?
A: 90

Q: What about the “Russian Thistle plant response rating” value [3] of the same molecule?
A: 98

Q: COCCn1c(-c2cc(F)cc(F)c2)ncc(C(=O)C2=C(O)CCCC2=O)c1=O [Compound 119] was tested. Which “Plant response rating, Russian Thistle” value [3, 9] did it give?
A: 100

Q: What about the “Plant response rating, Russian Thistle” value [3, 8] of the same molecule?
A: 100

Q: And the “Plant response rating, Russian Thistle” value [3, 10]?
A: 100

Q: What about the “Russian Thistle plant response rating” value [3] of the same molecule?
A: 100

Q: COCCCn1c(-c2cc(F)cc(F)c2)ncc(C(=O)C2=C(O)CCCC2=O)c1=O [Compound 120] was tested. Which “Plant response rating, Russian Thistle” value [3, 8] did it give?
A: 80

Q: What about the “Plant response rating, Russian Thistle” value [3, 10] of the same molecule?
A: 80

Q: What does the source list for COCCn1c(-c2cc(F)cc(F)c2)ncc(C(=O)C2=C(O)C3CCC(C3)C2=O)c1=O (stereo not shown) [Compound 243, 2-(3,5-difluorophenyl)-5-[(2-hydroxy-4-oxobicyclo[3.2.1]oct-2-en-3-yl)carbonyl]-3-(2-methoxyethyl)-4(3H)-pyrimidinone]?
A: Plant response rating, Russian Thistle [3, 9]: 100; Plant response rating, Russian Thistle [3, 8]: 100; Plant response rating, Russian Thistle [3, 10]: 100; Russian Thistle plant response rating [3]: 100; Plant response rating, Foxtail, Green [4, 11]: 80; Plant response rating, Foxtail, Green [4, 12]: 85; Plant response rating, Foxtail, Green [4, 13]: 90; Plant response rating, Foxtail, Green [4, 14]: 98; Plant response rating, Foxtail, Green [4, 15]: 35; Plant response rating, Foxtail, Green [4, 16]: 100; Plant response rating, Foxtail, Green [4, 17]: 100; Plant response rating, Crabgrass, Naked ([5]; 62 g ai/ha): 100; Plant response rating, Crabgrass, Naked ([5]; 125 g ai/ha): 100; Plant response rating, Crabgrass, Naked ([5]; 250 g ai/ha): 100; Plant response rating, Spanishneedles [6, 11]: 60; Plant response rating, Spanishneedles [6, 12]: 65; Plant response rating, Spanishneedles [6, 13]: 70; Plant response rating, Spanishneedles [6, 14]: 70; Plant response rating, Spanishneedles [6, 16]: 100; Plant response rating, Spanishneedles [6, 17]: 100; Plant response rating, Kochia (kochia (Kochia scoparia); [11]): 50; Plant response rating, Kochia (kochia (Kochia scoparia); [12]): 60; Plant response rating, Kochia (kochia (Kochia scoparia); [13]): 70; Plant response rating, Kochia (kochia (Kochia scoparia); [14]): 75; Plant response rating, Kochia (kochia (Kochia scoparia); [15]): 80; Plant response rating, Kochia (kochia (Kochia scoparia); [16]): 100; Plant response rating, Kochia (kochia (Kochia scoparia); [17]): 100; Plant response rating, Sowthistle ([7]; 31 g ai/ha, scale 0 to 100): 90; Plant response rating, Sowthistle [7, 8]: 90; Plant response rating, Sowthistle ([7]; 125 g ai/ha, scale 0 to 100 (0 no effect, 100 complete control)): 95; Plant response rating, Sowthistle ([7]; 250 g ai/ha, scale 0 to 100 (0 no effect, 100 complete control)): 98
